Source: patent US10016383B2, “Inhibitors of metallo-β-lactamase-enzymes” (McMaster University, priority 2013, dated 2018)
Entries after “also recorded” stand apart in the source; their conditions may differ.

What was measured:
NDM-1 [1] = target: T1, NDM-1 (Klebsiella pneumoniae, UniProt C7C422); experiment: IC50 enzyme inhibition assay, nitrocefin reporter substrate; format: biochemical; design: All β-lactamase overexpression constructs were generated without the leader peptide in a pET-28b plasmid containing a N-terminal His Tag; His tag (N, cleaved yes); SUMO (implied by the use of SUMO protease) (N, cleaved yes); made in house; host or cells: E. coli BL21(DE3)
Experimental: (§1) Enzyme (NDM-1, 5 nM; VIM-2, 500 pM; CTX-M-15, 500 pM; KPC-2, 5 nM; OXA-48, 1 nM; TEM-1, 100 pM; ACE, 50 nM) was mixed with 30 μM nitrocefin (100 μM nitrocefin for TEM-1; 250 µM furanacryloyl-L-phenylalanylglycylglycine [FAPGG] for ACE^24) after a 5-10 minute preincubation with AM-A. Metallo-enzymes were supplemented with 10 μM ZnSO4. Assays were read in 96-well microplate format at 490 nm using a Spectramax reader (Molecular Devices) at 30-37° C.
E. coli strain BW25113 was modified by deletion of the bamB and tolC genes so as to increase permeability to and reduce efflux of small molecules. This strain was then further modified by the single-copy chromosomal insertion of the blaNDM-1 gene under control of the pLac promoter. Microbial natural product extracts were screened against this strain in the presence of sublethal ¼ MIC meropenem. AM-A was purified from a hit extract and its structure elucidated by NMR, mass spectrometry and polarimetry. IC50 values for AM-A were determined using nitrocefin (for MBLs and Ser BLs) and furanacryloyl-L-phenylalanylglycylglycine (for ACE)^21 as reporter substrates against the following purified enzymes: MBLs IMP-7, VIM-2, and NDM-1; SBLs CTX-M-15, KPC-2, OXA-48, and TEM-1; as well as ACE from rabbit lung. […] FIC values were determined using standard methods^27. […]

IMP-7 [2] = experiment: Incubation of AM-A with metalloenzymes in Zn2+-depleted buffer; format: biochemical; conditions: extended incubation, AM-A 0.5 mM
Experimental: (§2) 20 μL of the above was diluted with 180 μL nitrocefin or FAPGG substrate for the following final concentrations: Enzyme (50 nM), FAPGG (50 μM)/nitrocefin (20 μM), AM-A (50 μM). Buffer (50 mM HEPES pH 7.5, 300 mM NaCl) was stirred overnight with 2 g/100 mL Chelex-100 (Biorad; Richmond, Calif.). Assays were read in 96-well microplate format at 490 nm using a Spectramax reader (Molecular Devices) at 37° C.

NDM-1 [3] = target: T1, NDM-1; experiment: as above; format: biochemical; design: All β-lactamase overexpression constructs were generated without the leader peptide in a pET-28b plasmid containing a N-terminal His Tag; His tag (N, cleaved yes); SUMO (implied by the use of SUMO protease) (N, cleaved yes); made in house; host or cells: E. coli BL21(DE3); conditions: extended incubation, AM-A 0.5 mM
Experimental: as §2, with “Enzyme (500 nM) was incubated with AM-A (500 μM) for 10 minutes. 20 μL” for “20 μL”

Pseudomonas spp. = experiment: Clinical isolate screening with meropenem; format: cell-based, Pseudomonas aeruginosa
Experimental: Various concentrations of AM-A were chosen in combination with 2 mg/L of meropenem which is the EUCAST breakpoint for resistance^28. Synergistic properties of the two compounds were examined in a micro-titre tray using BHI as the growth medium (Oxford Science Park, England) and an inoculum of 0.5 MacFarland. All plates contained the control strains Escherichia coli ATCC 25922 and Pseudomonas aeruginosa ATCC 27853. Overall, 226 non-clonal clinical isolates (Enterobacteriaceae, P. aeruginosa and Acinetobacter spp.) were challenged containing one of the following MBLs: SPM-1 (n=17), AIM-1 (n=8), NDM-1 (n=67), VIM-type (n=114) or IMP-type (n=20). […] Plates were incubated at 37° C. and read after 18 hrs.

VIM-2 = target: T2, VIM-2 (Escherichia coli, UniProt Q5U7L7); experiment: IC50 enzyme inhibition assay, nitrocefin reporter substrate; format: biochemical
T2 construct: All β-lactamase overexpression constructs were generated without the leader peptide in a pET-28b plasmid containing a N-terminal His Tag; His tag (N); made in house; host or cells: E. coli BL21(DE3)
Experimental: as §1
(§3) E. coli strain BW25113 was modified by deletion of the bamB and tolC genes so as to increase permeability to and reduce efflux of small molecules. This strain was then further modified by the single-copy chromosomal insertion of the blaNDM-1 gene under control of the pLac promoter. Microbial natural product extracts were screened against this strain in the presence of sublethal ¼ MIC meropenem. AM-A was purified from a hit extract and its structure elucidated by NMR, mass spectrometry and polarimetry. IC50 values for AM-A were determined using nitrocefin (for MBLs and Ser BLs) and furanacryloyl-L-phenylalanylglycylglycine (for ACE)^21 as reporter substrates against the following purified enzymes: MBLs IMP-7, VIM-2, and NDM-1; SBLs CTX-M-15, KPC-2, OXA-48, and TEM-1; as well as ACE from rabbit lung. IC50, reversibility, Zn^2+ restoration, and inactivation enzyme assays were performed in 50 mM HEPES pH 7.5 and measured using a SpectraMax reader (Molecular Devices). ICP-MS experiments were conducted using purified NDM-1 at 5 mg/mL and varying concentrations of AM-A with subsequent dilution and transfer by nebulization into a NexION 3000 ICP mass spectrometer (Perkin Elmer). FIC values were determined using standard methods^27. Various concentrations of AM-A were tested in combination with 2 mg/L meropenem against 200+MBL-expressing clinical isolates including Pseudomonas spp., Acinetobacter spp., and Enterobacteriaceae. A dose of 2×10^6 forming units (cfu) of Klebsiella pneumoniae N11-2218 was used for all organ bacterial load experiments and a dose of 5×10^7cfu for all survival experiments. For all experiments, mice were treated with compound 30 minutes post infection.

TEM-1 = target: T3, TEM-1 (Escherichia coli, UniProt P62593); experiment: as above; format: biochemical
T3 construct: All β-lactamase overexpression constructs were generated without the leader peptide in a pET-28b plasmid containing a N-terminal His Tag; His tag (N); made in house; host or cells: E. coli BL21(DE3)
Experimental: as §1, §3

OXA-48 = target: T4, OXA-48 (Klebsiella pneumoniae, UniProt Q6XEC0); experiment: as above; format: biochemical
T4 construct: All β-lactamase overexpression constructs were generated without the leader peptide in a pET-28b plasmid containing a N-terminal His Tag; His tag (N); made in house; host or cells: E. coli BL21(DE3)
Experimental: as §1, §3

CTX-M-15 = target: T5, CTX-M-15 (Escherichia coli, UniProt Q9EXV5); experiment: as above; format: biochemical
T5 construct: All β-lactamase overexpression constructs were generated without the leader peptide in a pET-28b plasmid containing a N-terminal His Tag; His tag (N); made in house; host or cells: E. coli BL21(DE3)
Experimental: as §1, §3

IMP-7 [4] = experiment: as above; format: biochemical
Experimental: as §1, §3

KPC-2 = target: T6, KPC-2 (Klebsiella pneumoniae, UniProt Q9F663); experiment: as above; format: biochemical
T6 construct: All β-lactamase overexpression constructs were generated without the leader peptide in a pET-28b plasmid containing a N-terminal His Tag; His tag (N); made in house
Experimental: as §1, §3

T1 sequence (C7C422 29-270 limits assumed): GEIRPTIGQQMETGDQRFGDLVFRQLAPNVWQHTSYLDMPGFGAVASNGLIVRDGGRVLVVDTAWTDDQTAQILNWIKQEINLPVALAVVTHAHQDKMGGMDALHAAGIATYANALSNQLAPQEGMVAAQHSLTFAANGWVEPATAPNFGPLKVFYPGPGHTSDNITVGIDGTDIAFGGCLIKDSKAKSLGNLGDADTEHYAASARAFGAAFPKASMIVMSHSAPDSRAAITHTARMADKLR
T4 sequence (Q6XEC0 23-265 limits assumed): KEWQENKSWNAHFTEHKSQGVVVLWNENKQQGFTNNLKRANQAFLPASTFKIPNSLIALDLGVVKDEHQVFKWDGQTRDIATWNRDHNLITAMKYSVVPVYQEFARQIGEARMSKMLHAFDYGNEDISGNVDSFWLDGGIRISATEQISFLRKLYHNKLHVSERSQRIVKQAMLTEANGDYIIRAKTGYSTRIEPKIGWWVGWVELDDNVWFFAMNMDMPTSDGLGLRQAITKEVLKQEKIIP
T6 sequence (Q9F663 25-293 limits assumed): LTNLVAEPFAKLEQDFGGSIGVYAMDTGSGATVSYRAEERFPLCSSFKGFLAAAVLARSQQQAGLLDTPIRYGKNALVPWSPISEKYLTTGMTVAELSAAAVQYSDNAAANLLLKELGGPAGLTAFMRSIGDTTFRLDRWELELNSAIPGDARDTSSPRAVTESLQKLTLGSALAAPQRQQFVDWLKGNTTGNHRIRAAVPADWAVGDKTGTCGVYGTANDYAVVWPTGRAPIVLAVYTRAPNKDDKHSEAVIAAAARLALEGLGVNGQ
T5 sequence (Q9EXV5 entry or part of it): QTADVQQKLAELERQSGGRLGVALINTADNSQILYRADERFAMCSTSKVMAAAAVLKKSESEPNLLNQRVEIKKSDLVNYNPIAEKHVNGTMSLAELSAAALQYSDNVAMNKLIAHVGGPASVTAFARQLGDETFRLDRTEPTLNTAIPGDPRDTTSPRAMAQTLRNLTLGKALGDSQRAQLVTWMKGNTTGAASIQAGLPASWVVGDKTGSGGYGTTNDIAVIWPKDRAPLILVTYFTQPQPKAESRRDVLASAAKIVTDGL
T3 sequence (P62593 24-286 limits assumed): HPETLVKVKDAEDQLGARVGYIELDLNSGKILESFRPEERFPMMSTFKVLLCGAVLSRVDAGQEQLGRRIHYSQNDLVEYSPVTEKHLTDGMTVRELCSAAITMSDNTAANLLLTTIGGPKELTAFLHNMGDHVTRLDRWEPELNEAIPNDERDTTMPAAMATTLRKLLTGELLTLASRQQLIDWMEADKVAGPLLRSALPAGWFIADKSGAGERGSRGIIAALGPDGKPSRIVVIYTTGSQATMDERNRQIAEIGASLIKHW

N[C@H](CN[C@H](CN[C@@H](CC(=O)O)C(=O)O)C(=O)O)C(=O)O [AM-A, aspergillomarasmine A]
in vitro inhibition of NDM-1 (NDM-1 [1]): potent in vitro dose-dependent inhibition
inhibition of activity in IMP-7 (IMP-7 [2]): ~70%
inactivation of NDM-1 (NDM-1 [3]): complete inactivation
activity in Pseudomonas spp. (potentiation of meropenem) (Pseudomonas spp.): active
IC50 (VIM-2): 9.6 ± 2.4 µM
in vitro inhibition of VIM-2 (VIM-2): potent in vitro dose-dependent inhibition
effect on TEM-1 (TEM-1): no effect
effect on activity of OXA-48 (OXA-48): no effect; also recorded: unaffected
effect on CTX-M-15 (CTX-M-15): no effect
activity against IMP-7 (IMP-7 [4]): weaker activity; also recorded: less potent inactivation
effect on KPC-2 (KPC-2): no effect
